Assay results reported in ChEMBL document CHEMBL1201862, “PubChem BioAssay data set” (2004).
Counter-ions that a name gives are not always drawn. Activity calls are given as the source filed them.

What was measured:
Genome polyprotein = Genome polyprotein (dengue virus type 2, UniProt P29990); experiment: flavivirus cap methylation enzyme inhibition – biochemical, confirmation dose response, primary screen (AID 588689); format: functional
[1] = molecular target: T1, Hepatocyte nuclear factor 4-alpha (Homo sapiens, UniProt P41235); format: functional, cell-based;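 also: biochemical luminescence-based dose-response counterscreen measuring inhibition of HNF4 dimerization, run alongside a screen for blockers of ABHD5–perilipin-5 interaction; split luciferase complementation of HNF4 fusion proteins in cell lysate measuring dimerization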
T1 sequence (P41235 whole entry): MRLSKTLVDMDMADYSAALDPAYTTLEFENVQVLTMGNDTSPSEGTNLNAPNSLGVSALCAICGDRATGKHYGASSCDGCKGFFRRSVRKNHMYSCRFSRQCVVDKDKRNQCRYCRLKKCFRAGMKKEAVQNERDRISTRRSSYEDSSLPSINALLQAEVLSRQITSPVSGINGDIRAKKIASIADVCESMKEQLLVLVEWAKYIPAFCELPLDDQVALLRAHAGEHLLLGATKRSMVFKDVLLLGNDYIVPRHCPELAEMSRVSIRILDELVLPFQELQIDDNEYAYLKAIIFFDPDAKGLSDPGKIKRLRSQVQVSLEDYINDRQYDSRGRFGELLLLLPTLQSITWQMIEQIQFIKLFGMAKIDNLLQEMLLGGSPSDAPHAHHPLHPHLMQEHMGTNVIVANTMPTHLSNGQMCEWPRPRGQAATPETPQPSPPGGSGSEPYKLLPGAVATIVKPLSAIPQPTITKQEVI

[2] = molecular target: Nuclear receptor subfamily 5 group A member 2 (Homo sapiens, UniProt O00482); format: functional, cell-based;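 also: HEK293T cells transfected with LRH-1 and a StAR promoter luciferase reporter; potency for inhibitors that lower LRH-1 driven reporter light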
Steroidogenic factor 1 = Steroidogenic factor 1 (Homo sapiens, UniProt Q13285); experiment: Counterscreen for inverse agonists of the liver receptor homolog-1 (LRH-1; NR5A2): Luminescence-based cell-based high throughput dose response assay to identify inverse agonists of the Steroidogenic Factor 1 Nuclear Receptor (SF1; NR5A1).; format: functional
[3] = nonselective StAR promoter luciferase inhibitors – cell-based, luminescence, luciferase reporter, counter-screen for LRH-1 inverse agonist project, dose response (AID 651969); format: functional
[4] = molecular target: T2, Sentrin-specific protease 8 (Homo sapiens, UniProt Q96LD8); experiment: inhibition of human SENP8 cleavage activity – biochemical, luminescence, SAR follow-up (AID 504501); format: functional
T2 sequence (Q96LD8 whole entry): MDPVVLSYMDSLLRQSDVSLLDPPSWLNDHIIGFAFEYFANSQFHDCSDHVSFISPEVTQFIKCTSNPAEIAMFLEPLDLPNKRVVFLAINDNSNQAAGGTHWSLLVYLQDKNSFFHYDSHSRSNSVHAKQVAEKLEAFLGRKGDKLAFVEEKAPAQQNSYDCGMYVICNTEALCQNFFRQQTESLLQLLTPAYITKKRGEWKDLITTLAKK

Caspase-3 = molecular target: T3, Caspase-3 (Homo sapiens, UniProt P42574); experiment: SAR Analysis of small molecule inhibitors of Sentrin-specific proteases (SENPs) using a Caspase-3 Selectivity assay. [Related pubchem assays (depositor defined):AID2540, AID2599, AID434973, AID489001]; format: functional
T3 sequence (P42574 whole entry): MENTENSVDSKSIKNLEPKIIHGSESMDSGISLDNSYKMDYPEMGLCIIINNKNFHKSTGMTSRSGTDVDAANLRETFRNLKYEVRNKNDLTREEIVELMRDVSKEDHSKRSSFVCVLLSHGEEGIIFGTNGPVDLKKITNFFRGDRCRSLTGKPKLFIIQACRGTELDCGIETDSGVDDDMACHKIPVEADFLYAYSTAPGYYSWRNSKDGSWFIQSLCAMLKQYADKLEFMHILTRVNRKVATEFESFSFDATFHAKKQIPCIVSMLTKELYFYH

[5] = molecular target: T4, Sentrin-specific protease 6 (Homo sapiens, UniProt Q9GZR1); experiment: SAR Analysis of small molecule inhibitors of Sentrin-specific protease 6 (SENP6) using a Luminescent assay. [Related pubchem assays (depositor defined):AID2582, AID2599]; format: functional
T4 sequence (Q9GZR1 whole entry): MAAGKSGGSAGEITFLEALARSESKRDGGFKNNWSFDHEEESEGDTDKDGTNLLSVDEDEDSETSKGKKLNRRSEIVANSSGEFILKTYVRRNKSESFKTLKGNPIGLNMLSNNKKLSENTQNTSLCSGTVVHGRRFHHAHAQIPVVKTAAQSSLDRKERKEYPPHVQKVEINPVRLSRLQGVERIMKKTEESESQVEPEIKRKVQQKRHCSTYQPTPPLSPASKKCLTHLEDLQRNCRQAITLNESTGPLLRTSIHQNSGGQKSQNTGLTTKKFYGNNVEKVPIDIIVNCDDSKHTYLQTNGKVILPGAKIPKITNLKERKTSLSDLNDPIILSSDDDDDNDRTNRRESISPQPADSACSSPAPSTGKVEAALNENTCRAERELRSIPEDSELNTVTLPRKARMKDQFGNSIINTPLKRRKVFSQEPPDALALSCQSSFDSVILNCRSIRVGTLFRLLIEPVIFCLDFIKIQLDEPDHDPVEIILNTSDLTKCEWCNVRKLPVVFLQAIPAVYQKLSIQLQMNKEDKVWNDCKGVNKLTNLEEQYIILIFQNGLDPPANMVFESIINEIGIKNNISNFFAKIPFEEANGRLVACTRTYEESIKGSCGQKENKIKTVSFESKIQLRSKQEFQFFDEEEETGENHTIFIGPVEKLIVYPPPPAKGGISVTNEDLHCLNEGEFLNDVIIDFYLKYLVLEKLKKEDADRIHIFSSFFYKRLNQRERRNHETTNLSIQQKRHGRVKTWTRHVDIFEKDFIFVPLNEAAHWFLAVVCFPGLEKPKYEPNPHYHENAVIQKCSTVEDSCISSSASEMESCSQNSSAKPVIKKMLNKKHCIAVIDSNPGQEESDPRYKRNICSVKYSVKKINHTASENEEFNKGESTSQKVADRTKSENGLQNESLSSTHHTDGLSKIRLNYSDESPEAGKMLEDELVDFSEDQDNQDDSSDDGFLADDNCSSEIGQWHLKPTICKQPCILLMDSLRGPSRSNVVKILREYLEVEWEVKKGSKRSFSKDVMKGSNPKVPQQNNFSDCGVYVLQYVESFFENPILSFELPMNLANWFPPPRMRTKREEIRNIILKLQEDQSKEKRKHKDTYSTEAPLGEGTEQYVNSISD

[6] = molecular target: T5, Sentrin-specific protease 7 (Homo sapiens, UniProt Q9BQF6); experiment: inhibition of human SENP7 cleavage activity – biochemical, luminescence, SAR follow-up (AID 504497); format: functional
T5 sequence (Q9BQF6 whole entry): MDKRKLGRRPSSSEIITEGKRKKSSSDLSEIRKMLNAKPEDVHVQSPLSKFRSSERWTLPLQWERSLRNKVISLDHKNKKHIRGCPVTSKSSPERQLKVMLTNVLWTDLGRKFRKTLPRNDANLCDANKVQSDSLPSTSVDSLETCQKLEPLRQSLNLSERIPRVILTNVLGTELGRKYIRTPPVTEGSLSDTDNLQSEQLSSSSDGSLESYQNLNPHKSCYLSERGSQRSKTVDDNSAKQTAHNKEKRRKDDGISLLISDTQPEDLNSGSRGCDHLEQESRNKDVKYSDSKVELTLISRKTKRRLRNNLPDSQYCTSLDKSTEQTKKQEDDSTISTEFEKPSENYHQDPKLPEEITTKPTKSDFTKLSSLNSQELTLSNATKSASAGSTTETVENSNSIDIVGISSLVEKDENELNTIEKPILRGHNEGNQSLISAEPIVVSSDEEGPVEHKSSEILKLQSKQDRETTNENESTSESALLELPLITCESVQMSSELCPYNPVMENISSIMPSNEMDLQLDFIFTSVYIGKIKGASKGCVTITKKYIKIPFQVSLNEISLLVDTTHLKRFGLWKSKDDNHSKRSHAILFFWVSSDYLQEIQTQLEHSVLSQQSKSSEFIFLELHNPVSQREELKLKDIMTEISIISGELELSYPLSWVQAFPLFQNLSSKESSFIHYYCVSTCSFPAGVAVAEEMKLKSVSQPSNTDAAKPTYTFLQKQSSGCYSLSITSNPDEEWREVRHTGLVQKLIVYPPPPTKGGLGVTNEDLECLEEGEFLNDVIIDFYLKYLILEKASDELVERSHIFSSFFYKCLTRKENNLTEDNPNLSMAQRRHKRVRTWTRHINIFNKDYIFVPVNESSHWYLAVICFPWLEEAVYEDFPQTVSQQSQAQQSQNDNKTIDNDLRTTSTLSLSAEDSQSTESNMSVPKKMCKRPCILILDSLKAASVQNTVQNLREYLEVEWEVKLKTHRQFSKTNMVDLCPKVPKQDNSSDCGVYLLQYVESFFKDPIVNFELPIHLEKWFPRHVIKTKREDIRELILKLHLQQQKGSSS

[7] = molecular target: T6, Probable nicotinate-nucleotide adenylyltransferase (Staphylococcus aureus (strain N315), UniProt P65502); format: functional, Staphylococcus aureus subsp. aureus N315;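 as to IC50 Mean: confirmatory dose-response retesting of NadD inhibitor hits first found in an ultra-high-throughput screen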
[8] = molecular target: T6, Probable nicotinate-nucleotide adenylyltransferase; format: functional, Staphylococcus aureus subsp. aureus N315; conditions: read-out: IC50_Mean
Melanocortin receptor 4 = Melanocortin receptor 4 (Homo sapiens, UniProt P32245); format: functional, cell-based;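 also: Cell-based assay with luminescence read-out, confirmatory dose-response testing for agonist activity of biased ligands at MC4R; human U2OS cells with tagged receptor and beta-arrestin; potency of agonists that increase receptor coupling to beta-arrestin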
[9] = tested on: Streptococcus sp. 'group A'; experiment: Streptococcus pyogenes SK(-)GAS viability under kanamycin – luminescence, BacTiterGlo, confirmation, counter-screen for streptokinase expression inhibitor project, dose response (AID 1900); format: functional, organism-based
Streptokinase A = molecular target: T7, Streptokinase A (Streptococcus pyogenes serotype M1, UniProt P10520); experiment: viability-normalized secreted streptokinase activity reduction – plasminogen activation absorbance, OD405, dose response (AID 1914); format: functional, Streptococcus pyogenes M1 GAS;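 also: secreted streptokinase activity via plasminogen activation per viability signal from cell pellet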
T7 sequence (P10520 whole entry): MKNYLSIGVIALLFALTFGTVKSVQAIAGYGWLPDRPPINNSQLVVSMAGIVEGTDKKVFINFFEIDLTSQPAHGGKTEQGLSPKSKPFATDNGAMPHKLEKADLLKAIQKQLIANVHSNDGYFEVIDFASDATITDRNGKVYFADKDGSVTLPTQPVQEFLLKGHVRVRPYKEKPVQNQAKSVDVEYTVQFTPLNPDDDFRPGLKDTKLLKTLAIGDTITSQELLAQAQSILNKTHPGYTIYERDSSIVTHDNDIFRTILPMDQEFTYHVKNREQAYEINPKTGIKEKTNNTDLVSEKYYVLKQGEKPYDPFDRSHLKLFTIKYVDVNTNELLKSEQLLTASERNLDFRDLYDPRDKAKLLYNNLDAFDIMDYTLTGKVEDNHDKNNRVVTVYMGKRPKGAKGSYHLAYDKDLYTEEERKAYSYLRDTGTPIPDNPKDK

[10] = Trypanosoma cruzi growth suppression in host cells – NIH3T3 host cells, beta-gal luminescence, confirmation (AID 2044); format: functional, cell-based;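 also: intracellular parasites grown in NIH/3T3 mouse fibroblasts as host cells; luminescent beta-galactosidase reporter signal from transgenic T. cruzi replicating inside host cells; inhibitors lower the luminescence signal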
[11] = NIH3T3 cell viability loss – ATP luminescence, mouse fibroblasts, counter-screen, dose response (AID 2010); format: functional, cell-based;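 also: cells exposed to compound for about 90 hours before reading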
Streptococcus = experiment: GAS UMAA2166 growth inhibition – luminescence, BacTiterGlo, counter-screen for streptokinase expression inhibitor project, dose response (AID 1915); format: functional, organism-based;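 also: potency for reduction of bacterial viability or growth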

Sequence of Steroidogenic factor 1 (Q13285 whole entry): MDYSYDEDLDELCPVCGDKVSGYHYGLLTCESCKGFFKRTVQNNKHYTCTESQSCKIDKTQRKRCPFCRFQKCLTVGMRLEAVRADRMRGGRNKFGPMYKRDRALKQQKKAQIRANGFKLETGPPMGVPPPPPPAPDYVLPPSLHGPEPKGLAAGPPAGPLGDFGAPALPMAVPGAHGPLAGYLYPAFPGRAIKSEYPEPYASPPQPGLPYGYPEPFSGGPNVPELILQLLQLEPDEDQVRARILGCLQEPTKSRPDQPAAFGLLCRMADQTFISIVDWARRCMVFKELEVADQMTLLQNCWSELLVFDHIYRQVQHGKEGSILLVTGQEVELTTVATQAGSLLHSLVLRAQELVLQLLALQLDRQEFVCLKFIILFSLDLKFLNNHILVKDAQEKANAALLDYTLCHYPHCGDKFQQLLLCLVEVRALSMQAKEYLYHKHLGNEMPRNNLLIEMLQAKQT
Sequence of Melanocortin receptor 4 (P32245 whole entry): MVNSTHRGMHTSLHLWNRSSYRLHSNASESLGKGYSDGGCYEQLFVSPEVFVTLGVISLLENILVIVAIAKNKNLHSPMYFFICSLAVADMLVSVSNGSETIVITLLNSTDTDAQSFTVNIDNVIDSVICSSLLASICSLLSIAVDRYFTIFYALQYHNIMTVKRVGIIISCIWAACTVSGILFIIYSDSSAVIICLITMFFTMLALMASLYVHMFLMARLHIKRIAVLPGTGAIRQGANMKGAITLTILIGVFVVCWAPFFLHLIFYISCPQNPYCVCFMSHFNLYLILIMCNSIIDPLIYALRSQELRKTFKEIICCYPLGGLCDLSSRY
Sequence of Nuclear receptor subfamily 5 group A member 2 (O00482 whole entry): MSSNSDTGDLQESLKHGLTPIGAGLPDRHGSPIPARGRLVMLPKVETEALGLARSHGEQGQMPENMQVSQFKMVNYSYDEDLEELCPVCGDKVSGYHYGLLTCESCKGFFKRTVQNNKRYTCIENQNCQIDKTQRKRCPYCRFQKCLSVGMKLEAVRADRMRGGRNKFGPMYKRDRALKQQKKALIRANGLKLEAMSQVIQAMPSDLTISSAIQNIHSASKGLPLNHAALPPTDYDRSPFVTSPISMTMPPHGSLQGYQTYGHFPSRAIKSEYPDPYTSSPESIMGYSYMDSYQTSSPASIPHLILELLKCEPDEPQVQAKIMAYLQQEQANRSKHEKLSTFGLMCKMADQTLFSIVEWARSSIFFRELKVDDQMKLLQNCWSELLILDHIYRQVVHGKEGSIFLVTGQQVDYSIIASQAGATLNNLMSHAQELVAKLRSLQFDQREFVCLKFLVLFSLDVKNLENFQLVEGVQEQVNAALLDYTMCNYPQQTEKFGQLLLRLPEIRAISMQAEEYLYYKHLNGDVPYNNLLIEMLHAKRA
T6 sequence (P65502 whole entry): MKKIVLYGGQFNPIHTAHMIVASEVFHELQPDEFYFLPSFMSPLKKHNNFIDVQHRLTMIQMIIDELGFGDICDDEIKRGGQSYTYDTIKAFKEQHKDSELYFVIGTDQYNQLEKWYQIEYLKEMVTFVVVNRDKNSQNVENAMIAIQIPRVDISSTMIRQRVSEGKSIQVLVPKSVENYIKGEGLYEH
Sequence of Genome polyprotein (P29990 2492-3391 limits assumed): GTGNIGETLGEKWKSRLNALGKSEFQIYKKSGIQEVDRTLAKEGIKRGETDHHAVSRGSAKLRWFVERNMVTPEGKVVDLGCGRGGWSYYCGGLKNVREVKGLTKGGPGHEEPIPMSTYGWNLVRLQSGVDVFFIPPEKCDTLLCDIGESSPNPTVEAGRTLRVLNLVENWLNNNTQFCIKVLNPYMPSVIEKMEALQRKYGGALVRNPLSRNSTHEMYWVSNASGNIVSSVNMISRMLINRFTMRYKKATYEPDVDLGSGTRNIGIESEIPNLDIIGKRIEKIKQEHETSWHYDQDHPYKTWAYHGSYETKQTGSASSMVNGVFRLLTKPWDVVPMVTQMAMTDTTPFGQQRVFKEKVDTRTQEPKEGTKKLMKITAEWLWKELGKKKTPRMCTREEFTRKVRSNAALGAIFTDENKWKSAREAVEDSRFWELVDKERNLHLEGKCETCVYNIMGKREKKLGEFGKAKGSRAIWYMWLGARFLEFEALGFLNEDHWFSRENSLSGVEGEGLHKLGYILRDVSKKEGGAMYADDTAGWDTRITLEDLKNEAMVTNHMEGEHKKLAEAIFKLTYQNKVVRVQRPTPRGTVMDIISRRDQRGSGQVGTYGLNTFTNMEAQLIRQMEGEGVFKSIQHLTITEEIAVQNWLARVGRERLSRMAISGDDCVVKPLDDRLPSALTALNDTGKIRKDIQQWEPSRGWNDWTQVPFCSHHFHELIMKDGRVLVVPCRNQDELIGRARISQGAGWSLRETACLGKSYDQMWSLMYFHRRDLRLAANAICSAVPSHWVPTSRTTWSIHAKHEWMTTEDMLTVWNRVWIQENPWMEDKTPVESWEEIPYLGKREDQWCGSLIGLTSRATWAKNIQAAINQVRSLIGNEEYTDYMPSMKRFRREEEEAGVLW

O=C1NC(=O)N(c2ccccc2F)C(=O)/C1=C/c1ccc(Oc2ccc([N+](=O)[O-])cn2)cc1
IC50 (Genome polyprotein): 56.1 µM (active) | IC50 [1]: 1.88 µM (active)

Cc1ccc(C)c(NC(=O)CSc2nnc(-c3[nH]nc4ccccc34)o2)c1
IC50 [2]: 53.5 µM (inactive) | IC50 (Steroidogenic factor 1): 5.07 µM (active) | IC50 [3]: 35.9 µM (inactive)

CCOc1ccc(CCNC(=O)CN2C(=O)NC3(CCc4ccccc43)C2=O)cc1OCC (configuration not stated)
IC50 [2]: 16.7 µM (inactive) | IC50 (Steroidogenic factor 1): 4.33 µM (active) | IC50 [3]: 35.9 µM (inactive)

Cc1ccc2nc(NC(=O)c3cc(=O)c4cc(C)c(C)cc4o3)sc2c1
IC50 [4]: > 99 µM (inactive) | IC50 (Caspase-3): > 99 µM (inactive) | IC50 [5]: > 99 µM (inactive) | IC50 [6]: > 99 µM (inactive)

Cc1ccc(-n2nc3c(c2NC(=O)c2ccc(Br)o2)CSC3)c(C)c1
IC50 [7]: 2.11 µM (active) | IC50 [8]: 8.03 µM (active)

CCOc1ccc(Cc2nnc(SCC(=O)Nc3ccc(C(C)=O)cc3)nc2O)cc1
IC50 [2]: 13.5 µM (inactive) | IC50 (Steroidogenic factor 1): 5.1 µM (active) | IC50 [3]: 35.9 µM (inactive)

Cc1ccc(NC(=O)c2ncn(CCCN3CCN(Cc4cccc5ccccc45)CC3)n2)cc1C
EC50 (Melanocortin receptor 4): > 89.2 µM (inactive)

CC(C)CC(=O)Nc1ccc(-c2nc3cc(Cl)ccc3s2)cc1
IC50 [4]: > 99 µM (inactive) | IC50 (Caspase-3): > 99 µM (inactive) | IC50 [5]: > 99 µM (inactive) | IC50 [6]: 82.7 µM (active)

Cc1cccnc1C(NC(=O)C1CCN(CCOc2ccc(Cl)cc2Cl)CC1)c1ccc(Cl)cc1 (configuration not stated)
EC50 (Melanocortin receptor 4): > 89.2 µM (inactive)

NC(Cc1ccc(C(F)(F)F)cc1)c1csc(Nc2nccc(C(F)(F)F)n2)n1 (configuration not stated)
EC50 (Melanocortin receptor 4): > 89.2 µM (inactive)

COc1ccc(CCNC(=O)CN2C(=O)NC3(CCCCC3)C2=O)cc1
IC50 [2]: 16.5 µM (inactive) | IC50 (Steroidogenic factor 1): 1.74 µM (active) | IC50 [3]: 35.9 µM (inactive)

Fc1cc(F)cc(-c2noc(/C=C/c3ccccc3Cl)n2)c1
IC50 [4]: > 99 µM (inactive) | IC50 (Caspase-3): > 99 µM (inactive) | IC50 [5]: > 99 µM (inactive) | IC50 [6]: > 99 µM (inactive)

O=C(NC1CCCCC1)C(c1ccccc1F)n1c(=O)c(-c2ccco2)nc2ccccc21 (configuration not stated)
IC50 [1]: 1.84 µM (active)

Nc1ccc(-c2noc(/C=C/c3ccccc3)n2)cc1[N+](=O)[O-]
IC50 [4]: > 99 µM (inactive) | IC50 (Caspase-3): > 99 µM (inactive) | IC50 [5]: > 99 µM (inactive) | IC50 [6]: > 99 µM (inactive)

CN(C)CCOc1ccc(/C(=C(/CCCl)c2ccccc2)c2ccccc2)cc1 [TOREMIFENE CITRATE]
EC50 [9]: 5.82 µM (active) | EC50 (Streptokinase A): 25.9 µM (active) | EC50 [10]: 28.4 µM (active) | EC50 [11]: > 60 µM (not active) | EC50 (Streptococcus): 8.17 µM (active) | IC50 [1]: 7.87 µM (active)
